# Assay results from patent publication US10736883B2, “Triazole furan compounds as agonists of the APJ receptor” (AMGEN INC., priority 2016, dated 2020).
# Assays:
# heart failure rat model = test: In vivo cardiac contractility in heart failure (MI) rat model; conditions: heart failure rats (LAD ligation), acute administration for 30 min
# Experimental: Evidence for Improvement in Cardiac Contractility In Vivo in Heart Failure Rat Model
# Based on the ex vivo findings in isolated heart assay, APJ agonists were dosed in vivo to investigate the translation of cardiac contractility in in vivo settings. Male Lewis rats (Charles River, USA) at 2-3 months of age were used for the study. Heart failure was induced by permanent ligation of the left descending coronary artery which results in injury to the heart with an ejection fraction of <35%. APJ agonists were administered dose dependently acutely for a period of 30 min. Administration of example compounds lead to an increase in cardiac contractility as measured by dP/dtmax (derivative of left ventricular pressure) (Table 27).
# APJ receptor = APJ receptor (Homo sapiens (Human), UniProt P35414); test: [35S]GTPγS binding assay on membranes from CHO cells stably expressing human APJ receptor; assay type: biochemical; conditions: membranes of CHO cells stably expressing human APJ receptor, means of several independent experiments, read-out: Activity hAPJ SPA EC50 IP
# Method in brief: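 Membranes from CHO cells stably expressing human APJ were incubated with 0.2 nM [35S]GTPγS and ligands for 90 min at RT in 20 mM HEPES pH 7.5, 5 mM MgCl2, 200 mM NaCl, 3 μM GDP, 0.1% BSA with WGA PS beads. Nonspecific binding was set with 100 μM GTPγS. EC50 came from non-linear regression.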
# [1] = system: isolated perfused rat hearts; test: Ex vivo isolated perfused rat heart (Langendorff) assay, load independent inotropic/lusitropic effects; conditions: percent change over vehicle; for Isolated Heart Assay dP/dtmax (%): contractility; for Isolated Heart Assay dP/dtmin (%): relaxation
# Text: Evidence for Load Independent Inotropic Effects with APJ Agonists Using Ex Vivo Assay (Isolated Perfused Rat Hearts)
# Naive Sprague Dawley® SD rats (Harlan laboratories (Livermore, Calif. USA)) were anaesthetized and hearts were excised followed by cannulation in the Langendorff apparatus (Harvard apparatus, Holliston, Mass. USA) via aorta. The heart was perfused retrograde with modified oxygenated Krebs-Henseleit buffer (Skrzypiec-Spring M et al., (2007) J. Pharmacol Toxicol Methods 55: 113-126). The pressure of the solution causes the aortic valve to shut and the perfusate is then forced into the ostium and the coronary vessels. This allows the heart to beat for several hours. A balloon was inserted into the left ventricle (LV) to measure dP/dtmax (derivative of left ventricular pressure) as an index of cardiac contractility. The APJ agonist was perfused constantly in a dose dependent manner into the heart to examine cardiac contractility.
# Example 210.0 was infused at different concentrations and load independent contractility was measured by index of LV dP/dtmax and the results are expressed as a percent change over vehicle. […] Example 210.0 was infused at different concentrations and load independent lusitropic effect (relaxation) was measured by index of LV dP/dtmin where results are expressed as percent change over vehicle. […] Example 51.0 was infused at different concentrations and load independent contractility was measured by index of LV dP/dtmax and the results are expressed as a percent change over vehicle. […] Example 51.0 was infused at different concentrations and load independent lusitropic effect (relaxation) was measured by index of LV dP/dtmin where results are expressed as percent change over vehicle.
# Sequence of APJ receptor (P35414 whole entry): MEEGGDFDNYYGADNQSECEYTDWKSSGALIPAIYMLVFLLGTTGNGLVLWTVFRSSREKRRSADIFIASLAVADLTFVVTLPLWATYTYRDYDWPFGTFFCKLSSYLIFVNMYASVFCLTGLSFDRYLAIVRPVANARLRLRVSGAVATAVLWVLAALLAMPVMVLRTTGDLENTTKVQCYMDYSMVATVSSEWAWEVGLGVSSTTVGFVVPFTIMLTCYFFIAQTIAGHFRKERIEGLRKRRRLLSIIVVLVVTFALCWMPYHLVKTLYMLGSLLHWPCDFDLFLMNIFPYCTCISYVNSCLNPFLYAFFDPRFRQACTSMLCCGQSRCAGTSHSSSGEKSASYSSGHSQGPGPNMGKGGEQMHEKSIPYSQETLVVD
compound,measurement,setting,value
"COc1cccc(OC)c1-n1c(NS(=O)(=O)[C@@H](C)Cc2ncc(F)cn2)nnc1-c1ccco1 (single isomer, unassigned) [Example 51.0, (2S)—N-(4-(2,6-Dimethoxyphenyl)-5-(2-furanyl)-4H-1,2,4-triazol-3-yl)-1-(5-fluoro-2-pyrimidinyl)-2-propanesulfonamide or (2R)—N-(4-(2,6-dimethoxyphenyl)-5-(2-furanyl)-4H-1,2,4-triazol-3-yl)-1-(5-fluoro-2-pyrimidinyl)-2-propanesulfonamide]",MI Rat Model dP/dtmax (%),heart failure rat model,38%
same,EC50,APJ receptor,1 nM
same,Isolated Heart Assay dP/dtmax (%),[1],40.6%
same,Isolated Heart Assay dP/dtmin (%),[1],33.8%
"COc1cccc(OC)c1-n1c(NS(=O)(=O)[C@@H](C)Cc2ncc(F)cn2)nnc1-c1ccc(C)o1 (single isomer, unassigned) [Example 108.0, (2S)—N-(4-(2,6-Dimethoxyphenyl)-5-(5-methyl-2-furanyl)-4H-1,2,4-triazol-3-yl)-1-(5-fluoro-2-pyrimidinyl)-2-propanesulfonamide or (2R)—N-(4-(2,6-dimethoxyphenyl)-5-(5-methyl-2-furanyl)-4H-1,2,4-triazol-3-yl)-1-(5-fluoro-2-pyrimidinyl)-2-propanesulfonamide]",EC50,APJ receptor,0.25 nM
same,Isolated Heart Assay dP/dtmax (%),[1],38.8%
same,Isolated Heart Assay dP/dtmin (%),[1],30.1%
"COc1cccc(OC)c1-n1c(NS(=O)(=O)CCN2C(=O)N(C)CC[C@@H]2C)nnc1-c1ccc(C)o1 (single isomer, unassigned) [Example 204.0, N-(4-(2,6-Dimethoxyphenyl)-5-(5-methyl-2-furanyl)-4H-1,2,4-triazol-3-yl)-2-((6S)-3,6-dimethyl-2-oxotetrahydro-1 (2H)-pyrimidinyl)ethanesulfonamide ethanesulfonamide or N-(4-(2,6-dimethoxyphenyl)-5-(5-methyl-2-furanyl)-4H-1,2,4-triazol-3-yl)-2-((6R)-3,6-dimethyl-2-oxotetrahydro-1(2H)-pyrimidinyl)ethanesulfonamide]",MI Rat Model dP/dtmax (%),heart failure rat model,No effect
same,EC50,APJ receptor,0.26 nM
same,Isolated Heart Assay dP/dtmax (%),[1],24.6%
same,Isolated Heart Assay dP/dtmin (%),[1],29.0%
"COc1cccc(OC)c1-n1c(NS(=O)(=O)[C@H](C)Cc2ccc(Cl)cc2)nnc1-c1ccco1 (single isomer, unassigned) [Example 205.0, (2R)-1-(4-chlorophenyl)-N-(4-(2,6-dimethoxyphenyl)-5-(2-furanyl)-4H-1,2,4-triazol-3-yl)-2-propanesulfonamide or (2S)-1-(4-chlorophenyl)-N-(4-(2,6-dimethoxyphenyl)-5-(2-furanyl)-4H-1,2,4-triazol-3-yl)-2-propanesulfonamide]",EC50,APJ receptor,2.3 nM
same,Isolated Heart Assay dP/dtmax (%),[1],18.8%
same,Isolated Heart Assay dP/dtmin (%),[1],20.5%
"COc1cccc(OC)c1-n1c(NS(=O)(=O)CCc2ncc(C)cn2)nnc1-c1ccc(C)o1 [Example 26.0, N-(4-(2,6-dimethoxyphenyl)-5-(5-methyl-2-furanyl)-4H-1,2,4-triazol-3-yl)-2-(5-methyl-2-pyrimidinyl)ethanesulfonamide]",MI Rat Model dP/dtmax (%),heart failure rat model,58%
same,EC50,APJ receptor,0.42 nM
same,Isolated Heart Assay dP/dtmax (%),[1],10.20%
same,Isolated Heart Assay dP/dtmin (%),[1],11.1%
"COc1cccc(OC)c1-n1c(NS(=O)(=O)CCc2ccc(F)cn2)nnc1-c1ccco1 [Example 41.0, N-(4-(2,6-dimethoxyphenyl)-5-(2-furanyl)-4H-1,2,4-triazol-3-yl)-2-(5-fluoro-2-pyridinyl)ethanesulfonamide]",Isolated Heart Assay dP/dtmax (%),[1],22.1%
same,Isolated Heart Assay dP/dtmin (%),[1],22.7%
"COc1cccc(OC)c1-n1c(NS(=O)(=O)CCc2ccc(Cl)cc2)nnc1-c1ccco1 [Example 111.0, 2-(4-Chlorophenyl)-N-(4-(2,6-dimethoxyphenyl)-5-(furan-2-yl)-4H-1,2,4-triazol-3-yl)ethanesulfonamide]",MI Rat Model dP/dtmax (%),heart failure rat model,97%
same,EC50,APJ receptor,7.8 nM
same,Isolated Heart Assay dP/dtmax (%),[1],19.5%
same,Isolated Heart Assay dP/dtmin (%),[1],24.9%
"COc1cccc(OC)c1-n1c(NS(=O)(=O)[C@@H](C)[C@H](O)c2ncc(F)cn2)nnc1-c1ccc(C)o1 [Example 115.0, (1R,2S)-N-(4-(2,6-dimethoxyphenyl)-5-(5-methylfuran-2-yl)-4H-1,2,4-triazol-3-yl)-1-(5-fluoropyrimidin-2-yl)-1-hydroxypropane-2-sulfonamide]",MI Rat Model dP/dtmax (%),heart failure rat model,30%
same,EC50,APJ receptor,0.2 nM
same,Isolated Heart Assay dP/dtmax (%),[1],32.6%
same,Isolated Heart Assay dP/dtmin (%),[1],34.7%
COc1cccc(OC)c1-n1c(NS(=O)(=O)[C@@H](C)[C@H](OC)c2ncc(C)cn2)nnc1-c1ccc(C)o1 [Example 261.0],MI Rat Model dP/dtmax (%),heart failure rat model,30%
same,EC50,APJ receptor,0.13 nM
same,Isolated Heart Assay dP/dtmax (%),[1],34.5%
same,Isolated Heart Assay dP/dtmin (%),[1],53.8%
"COc1cccc(OC)c1-n1c(NS(=O)(=O)c2cccc(CO)c2)nnc1-c1ccc(C)o1 [Example 409.0, N-(4-(2,6-dimethoxyphenyl)-5-(5-methyl-2-furanyl)-4H-1,2,4-triazol-3-yl)-3-(hydroxymethyl)benzenesulfonamide]",EC50,APJ receptor,43 nM
"(1R,2R)-N-(4-(2,6-dimethoxyphenyl)-5-(5-methyl-2-furanyl)-4H-1,2,4-triazol-3-yl)-1-hydroxy-1-(5-methyl-2-pyrimidinyl)-2-propanesulfonamide or (1S,2S)-N-(4-(2,6-dimethoxyphenyl)-5-(5-methyl-2-furanyl)-4H-1,2,4-triazol-3-yl)-1-hydroxy-1-(5-methyl-2-pyrimidinyl)-2-propanesulfonamide [Example 244.0]",EC50,APJ receptor,0.94 nM
"(1R,2R)-N-(4-(2,6-dimethoxyphenyl)-5-(5-methyl-2-furanyl)-4H-1,2,4-triazol-3-yl)-1-methoxy-1-(5-methyl-2-pyrimidinyl)-2-propanesulfonamide or (1S,2S)-N-(4-(2,6-dimethoxyphenyl)-5-(5-methyl-2-furanyl)-4H-1,2,4-triazol-3-yl)-1-methoxy-1-(5-methyl-2-pyrimidinyl)-2-propanesulfonamide [Example 226.0]",EC50,APJ receptor,0.35 nM
"(1R,2R)-N-(4-(2,6-dimethoxyphenyl)-5-(5-methyl-2-furanyl)-4H-1,2,4-triazol-3-yl)-1-methoxy-1-(5-methyl-2-pyrimidinyl)-2-propanesulfonamide or (1S,2S)-N-(4-(2,6-dimethoxyphenyl)-5-(5-methyl-2-furanyl)-4H-1,2,4-triazol-3-yl)-1-methoxy-1-(5-methyl-2-pyrimidinyl)-2-propanesulfonamide [Example 250.0]",EC50,APJ receptor,3.3 nM
"(1R,2S)-1-(5-chloro-2-pyrimidinyl)-N-(4-(2,6-dimethoxyphenyl)-5-(5-methyl-2-furanyl)-4H-1,2,4-triazol-3-yl)-1-hydroxy-2-propanesulfonamide or (1S,2R)-1-(5-chloro-2-pyrimidinyl)-N-(4-(2,6-dimethoxyphenyl)-5-(5-methyl-2-furanyl)-4H-1,2,4-triazol-3-yl)-1-hydroxy-2-propanesulfonamide [Example 212.0]",EC50,APJ receptor,0.074 nM
"(1R,2S)-1-(5-chloro-2-pyrimidinyl)-N-(4-(2,6-dimethoxyphenyl)-5-(5-methyl-2-furanyl)-4H-1,2,4-triazol-3-yl)-1-hydroxy-2-propanesulfonamide or (1S,2R)-1-(5-chloro-2-pyrimidinyl)-N-(4-(2,6-dimethoxyphenyl)-5-(5-methyl-2-furanyl)-4H-1,2,4-triazol-3-yl)-1-hydroxy-2-propanesulfonamide [Example 216.0]",EC50,APJ receptor,0.23 nM
"(1S,2R)-N-(4-(2,6-dimethoxyphenyl)-5-(5-methyl-2-furanyl)-4H-1,2,4-triazol-3-yl)-1-hydroxy-1-(5-methyl-2-pyrazinyl)-2-propanesulfonamide or (1R,2S)-N-(4-(2,6-dimethoxyphenyl)-5-(5-methyl-2-furanyl)-4H-1,2,4-triazol-3-yl)-1-hydroxy-1-(5-methyl-2-pyrazinyl)-2-propanesulfonamide [Example 213.0]",EC50,APJ receptor,0.12 nM
"(2R)-1-(3-cyano-5-fluoro-2-pyridinyl)-N-(4-(2,6-dimethoxyphenyl)-5-(2-furanyl)-4H-1,2,4-triazol-3-yl)-2-propanesulfonamide or (2S)-1-(3-cyano-5-fluoro-2-pyridinyl)-N-(4-(2,6-dimethoxyphenyl)-5-(2-furanyl)-4H-1,2,4-triazol-3-yl)-2-propanesulfonamide [Example 29.0]",EC50,APJ receptor,0.82 nM
